Measured values published in patent US10611777B2, “Imidazopyridazine compounds and their use” (HUTCHISON MEDIPHARMA LIMITED, priority 2014, dated 2020).

Tests used:
Type in all cases: biochemical
PI3K-γ (p110γ) = PI3K-γ (p110γ) (Homo sapiens (Human), UniProt P48736); test: Fluorescent determination of PI3K enzyme activity (Transcreener KINASE Assay), PI3K-γ; settings: for PI3K-γ IH%: inhibition rate at 1 μM;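 on all read-outs here: p110γ enzyme reaction for 80 min at room temperature, ADP formed measured by far-red competitive fluorescence polarization immunoassay, inhibition relative to wells with 2% DMSO only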
Experimental: (§1) PI3K kinases including p110α/p85α and p110γ were purchased from Invitrogen, p110δ/p85α and p110β/p85α were from Millipore.
(§2) It is a universal, homogenous, high throughput screening (HTS) technology using a far-red, competitive fluorescence polarization immunoassay based on the defection of ADP to monitor the activity of enzymes that catalyze group transfer reactions. […] The reaction mixture was added into desired wells of a 96-well plate. The plate was sealed and incubated for 80 min at room temperature. • 2) Next, 25 uL ADP detection mix was added into each well. The plate was sealed again and incubated for 60 min at room temperature. Then fluorescence polarization was measured by Tecan Infinite F500 Reader.
(§3) Data was analyzed and IC50 values were generated using the add-in software for Microsoft Excel, Xlfit™ (version 5.3).
(§4) Inhibition rates were calculated as follow: IH %=(ADP amount under 2% DMSO well−ADP amount under test compound well)/ADP amount under 2% DMSO well×100%.

PI3K-β (p110β/p85α) = PI3K-β (p110β/p85α) (Homo sapiens (Human), UniProt P42338); test: Fluorescent determination of PI3K enzyme activity (Transcreener KINASE Assay), PI3K-β; settings: for PI3K-β IH%: inhibition rate at 1 μM;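 on all read-outs here: Far-red fluorescence polarization immunoassay detecting ADP produced by the kinase, 80 min enzyme reaction at room temperature, inhibition relative to ADP formed in 2% DMSO control wells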
Experimental: as §1, §2, §3, §4

PI3K-δ (p110δ/p85α) = PI3K-δ (p110δ/p85α) (Homo sapiens (Human), UniProt O00329); test: Fluorescent determination of PI3K enzyme activity (Transcreener KINASE Assay), PI3K-δ; settings: for PI3K-δ IH%: inhibition rate at 1 μM
Sequence of PI3K-δ (p110δ/p85α) (O00329 whole entry, species assumed): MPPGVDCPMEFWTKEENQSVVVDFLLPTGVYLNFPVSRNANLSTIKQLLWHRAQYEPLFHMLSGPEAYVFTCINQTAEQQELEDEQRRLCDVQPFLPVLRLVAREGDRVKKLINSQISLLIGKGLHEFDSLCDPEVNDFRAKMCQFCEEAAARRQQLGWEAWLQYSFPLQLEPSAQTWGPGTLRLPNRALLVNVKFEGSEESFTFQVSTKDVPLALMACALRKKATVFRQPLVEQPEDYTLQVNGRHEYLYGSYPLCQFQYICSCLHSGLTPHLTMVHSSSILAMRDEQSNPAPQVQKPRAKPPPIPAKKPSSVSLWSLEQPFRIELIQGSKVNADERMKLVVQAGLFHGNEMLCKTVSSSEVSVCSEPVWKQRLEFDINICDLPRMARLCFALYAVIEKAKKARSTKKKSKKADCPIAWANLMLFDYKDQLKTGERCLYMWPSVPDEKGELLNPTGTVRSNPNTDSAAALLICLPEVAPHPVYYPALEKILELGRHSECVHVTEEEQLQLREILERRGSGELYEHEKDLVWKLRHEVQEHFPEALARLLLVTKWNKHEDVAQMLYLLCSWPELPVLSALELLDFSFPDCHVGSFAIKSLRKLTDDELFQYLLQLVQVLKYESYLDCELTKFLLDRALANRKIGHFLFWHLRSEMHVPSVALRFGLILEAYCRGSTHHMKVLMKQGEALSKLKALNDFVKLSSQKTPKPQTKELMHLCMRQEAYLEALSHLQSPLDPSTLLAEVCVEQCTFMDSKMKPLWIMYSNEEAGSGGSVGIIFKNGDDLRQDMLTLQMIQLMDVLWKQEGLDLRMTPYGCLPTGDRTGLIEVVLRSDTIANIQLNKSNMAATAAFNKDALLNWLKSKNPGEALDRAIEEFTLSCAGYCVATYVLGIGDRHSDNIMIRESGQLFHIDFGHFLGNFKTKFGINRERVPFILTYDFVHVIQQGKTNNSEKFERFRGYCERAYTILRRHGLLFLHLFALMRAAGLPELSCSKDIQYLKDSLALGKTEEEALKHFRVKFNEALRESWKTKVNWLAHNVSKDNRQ
Sequence of PI3K-δ (p110δ/p85α) (P27986 whole entry partner, species assumed): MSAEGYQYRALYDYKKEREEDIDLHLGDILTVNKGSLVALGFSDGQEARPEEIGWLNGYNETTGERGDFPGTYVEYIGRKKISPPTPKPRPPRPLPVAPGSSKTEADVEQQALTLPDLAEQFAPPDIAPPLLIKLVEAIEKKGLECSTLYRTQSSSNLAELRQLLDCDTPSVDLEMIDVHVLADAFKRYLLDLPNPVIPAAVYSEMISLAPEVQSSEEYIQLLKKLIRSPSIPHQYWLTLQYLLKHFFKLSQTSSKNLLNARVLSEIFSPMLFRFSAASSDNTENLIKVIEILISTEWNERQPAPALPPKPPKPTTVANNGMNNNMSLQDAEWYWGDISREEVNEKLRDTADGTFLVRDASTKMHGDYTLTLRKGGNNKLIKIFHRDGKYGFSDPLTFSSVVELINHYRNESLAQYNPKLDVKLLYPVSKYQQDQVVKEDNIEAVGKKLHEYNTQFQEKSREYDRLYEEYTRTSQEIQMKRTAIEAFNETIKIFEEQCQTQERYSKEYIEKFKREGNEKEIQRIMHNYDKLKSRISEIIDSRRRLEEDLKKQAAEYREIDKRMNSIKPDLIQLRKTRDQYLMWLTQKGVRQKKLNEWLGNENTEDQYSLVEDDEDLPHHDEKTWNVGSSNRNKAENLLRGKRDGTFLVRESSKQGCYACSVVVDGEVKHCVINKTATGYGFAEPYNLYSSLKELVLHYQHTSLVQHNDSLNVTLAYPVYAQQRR
Experimental: as §1, §2, §3, §4

Sequence of PI3K-β (p110β/p85α) (P42338 whole entry, species assumed): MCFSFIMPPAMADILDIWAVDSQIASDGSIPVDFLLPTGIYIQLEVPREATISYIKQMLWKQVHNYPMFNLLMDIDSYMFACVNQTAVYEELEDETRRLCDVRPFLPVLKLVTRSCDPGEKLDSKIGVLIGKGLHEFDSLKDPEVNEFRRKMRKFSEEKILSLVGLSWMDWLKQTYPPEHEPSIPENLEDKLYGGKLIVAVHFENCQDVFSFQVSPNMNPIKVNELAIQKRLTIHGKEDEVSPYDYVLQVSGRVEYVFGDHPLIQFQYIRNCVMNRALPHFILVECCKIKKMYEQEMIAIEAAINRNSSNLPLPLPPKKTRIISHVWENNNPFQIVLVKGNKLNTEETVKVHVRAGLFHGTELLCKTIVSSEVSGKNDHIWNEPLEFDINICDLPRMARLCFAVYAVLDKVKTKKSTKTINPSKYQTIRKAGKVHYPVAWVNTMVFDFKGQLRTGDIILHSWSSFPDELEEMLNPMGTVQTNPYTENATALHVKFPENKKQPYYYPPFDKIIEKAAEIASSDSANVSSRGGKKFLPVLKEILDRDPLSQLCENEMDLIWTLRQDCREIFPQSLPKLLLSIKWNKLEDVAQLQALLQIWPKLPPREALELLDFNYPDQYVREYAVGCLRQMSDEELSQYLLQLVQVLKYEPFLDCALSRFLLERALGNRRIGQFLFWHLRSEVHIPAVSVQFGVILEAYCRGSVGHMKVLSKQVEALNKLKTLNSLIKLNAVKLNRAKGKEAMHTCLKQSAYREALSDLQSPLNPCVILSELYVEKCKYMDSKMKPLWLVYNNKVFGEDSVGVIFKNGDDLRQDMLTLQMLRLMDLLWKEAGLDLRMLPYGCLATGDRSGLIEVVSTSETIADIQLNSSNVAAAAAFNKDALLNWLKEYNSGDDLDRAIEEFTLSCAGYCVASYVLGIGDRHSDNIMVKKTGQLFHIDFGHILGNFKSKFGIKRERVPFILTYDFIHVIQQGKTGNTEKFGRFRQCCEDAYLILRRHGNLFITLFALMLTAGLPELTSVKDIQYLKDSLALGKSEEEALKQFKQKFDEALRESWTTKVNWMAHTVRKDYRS
Sequence of PI3K-β (p110β/p85α) (P27986 whole entry partner, species assumed): as the sequence (P27986 whole entry partner, species assumed) above
Sequence of PI3K-γ (p110γ) (P48736 whole entry, species assumed): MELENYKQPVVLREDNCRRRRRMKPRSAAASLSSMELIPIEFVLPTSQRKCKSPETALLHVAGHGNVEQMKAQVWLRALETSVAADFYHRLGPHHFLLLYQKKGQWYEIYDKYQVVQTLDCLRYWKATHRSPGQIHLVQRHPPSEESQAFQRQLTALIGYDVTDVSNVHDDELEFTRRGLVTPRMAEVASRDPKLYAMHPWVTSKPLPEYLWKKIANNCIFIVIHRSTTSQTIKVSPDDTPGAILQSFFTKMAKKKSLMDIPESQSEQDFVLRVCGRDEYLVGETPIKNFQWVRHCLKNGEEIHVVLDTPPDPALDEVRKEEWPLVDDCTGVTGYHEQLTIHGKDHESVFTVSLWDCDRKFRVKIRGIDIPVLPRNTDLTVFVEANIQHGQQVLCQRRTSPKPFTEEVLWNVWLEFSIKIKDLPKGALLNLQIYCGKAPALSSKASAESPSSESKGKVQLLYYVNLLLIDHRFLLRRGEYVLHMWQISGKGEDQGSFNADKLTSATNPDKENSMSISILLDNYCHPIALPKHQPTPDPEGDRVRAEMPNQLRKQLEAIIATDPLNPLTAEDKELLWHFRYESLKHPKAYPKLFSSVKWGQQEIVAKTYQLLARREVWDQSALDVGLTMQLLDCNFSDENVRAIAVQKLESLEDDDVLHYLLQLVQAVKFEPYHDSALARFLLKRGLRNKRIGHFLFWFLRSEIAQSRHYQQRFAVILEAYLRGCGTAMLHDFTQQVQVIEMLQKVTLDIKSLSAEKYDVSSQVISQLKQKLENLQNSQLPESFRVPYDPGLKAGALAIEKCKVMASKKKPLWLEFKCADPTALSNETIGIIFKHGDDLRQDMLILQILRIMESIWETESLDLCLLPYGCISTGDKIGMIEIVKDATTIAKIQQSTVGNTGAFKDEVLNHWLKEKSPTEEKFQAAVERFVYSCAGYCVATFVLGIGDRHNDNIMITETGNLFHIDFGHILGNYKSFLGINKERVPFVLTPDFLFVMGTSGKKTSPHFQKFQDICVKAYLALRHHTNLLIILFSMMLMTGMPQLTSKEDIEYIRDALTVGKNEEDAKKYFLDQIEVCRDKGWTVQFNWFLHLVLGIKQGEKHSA

SMILES | PI3K-γ IH% (PI3K-γ (p110γ)) [%] | PI3K-β IH% (PI3K-β (p110β/p85α)) [%] | further results
CC(Nc1ncnc2[nH]cc(C#N)c12)c1cc2ncc(Cl)n2nc1-c1ccccc1 (single isomer, unassigned) [Compound 9] | −1.4 |  | 
CC(Nc1ncnc2[nH]cnc12)c1cc2ncc(Cl)n2nc1-c1ccccc1 (single isomer, unassigned) [Compound 11] |  | 55.7 | 
CCC(Nc1ncnc2[nH]cnc12)c1cc2ncc(Cl)n2nc1-c1ccccc1F (single isomer, unassigned) [Compound 25] |  |  | IC50 (PI3K-δ (p110δ/p85α)): 4 nM; IC50 (PI3K-γ (p110γ)): 2590 nM
CCC(Nc1ncnc2[nH]cnc12)c1cc2ncc(Cl)n2nc1-c1ccccc1F (single isomer, unassigned) [Compound 26] |  |  | IC50 (PI3K-δ (p110δ/p85α)): 839 nM
CC(Nc1ncnc(N)c1C#N)c1cc2nccn2nc1-c1ccccc1 (centres unmarked) [Compound 1, 4-amino-6-((1-(6-phenylimidazo[1,2-b]pyridazin-7-yl)ethyl)amino)pyrimidine-5-carbonitrile] | 16.1 | 28.1 | 
C[C@@H](Nc1ncnc(N)c1C#N)c1cc2ncc(Cl)n2nc1-c1ccccc1 [Compound 3, (R)-4-amino-6-((1-(3-chloro-6-phenylimidazo[1,2-b]pyridazin-7-yl)ethyl)amino)pyrimidine-5-carbonitrile] | 6.9 |  | 
CC[C@@H](Nc1ncnc(N)c1C#N)c1cc2ncc(Cl)n2nc1-c1ccccc1 [Compound 5, (R)-4-amino-6-((1-(3-chloro-6-phenylimidazo[1,2-b]pyridazin-7-yl)propyl)amino)pyrimidine-5-carbonitrile] |  | −10.7 | PI3K-δ IH% (PI3K-δ (p110δ/p85α)): 47.3%
CC[C@H](Nc1ncnc(N)c1C#N)c1cc2ncc(Cl)n2nc1-c1ccccc1 [Compound 6, (S)-4-amino-6-((1-(3-chloro-6-phenylimidazo[1,2-b]pyridazin-7-yl)propyl)amino)pyrimidine-5-carbonitrile] | 4.1 |  | 
C[C@@H](Nc1ncnc(N)c1C#N)c1cc2ncc(Cl)n2nc1-c1ccccn1 [Compound 7, (R)-4-amino-6-((1-(3-chloro-6-(pyridin-2-yl)imidazo[1,2-b]pyridazin-7-yl)ethyl)amino)pyrimidine-5-carbonitrile] | 61.1 | −2.7 | PI3K-δ IH% (PI3K-δ (p110δ/p85α)): 12.5%
C[C@H](Nc1ncnc(N)c1C#N)c1cc2ncc(Cl)n2nc1-c1ccccn1 [Compound 8, (S)-4-amino-6-((1-(3-chloro-6-(pyridin-2-yl)imidazo[1,2-b]pyridazin-7-yl)ethyl)amino)pyrimidine-5-carbonitrile] | −2.3 | 37.7 | 
CCC(Nc1ncnc2[nH]cnc12)c1cc2ncc(Cl)n2nc1-c1ccccc1 (centres unmarked) [Compound 14] | 22.5 | 3.2 | PI3K-δ IH% (PI3K-δ (p110δ/p85α)): 51.0%
C[C@H](Nc1ncnc(N)c1C#N)c1cc2ncc(Cl)n2nc1-c1cccc(F)c1 [Compound 15] |  | 59 | 
C[C@H](Nc1ncnc2[nH]cnc12)c1cc2ncc(Cl)n2nc1-c1cccc(F)c1 [Compound 16] |  | 27.5 | 
C[C@H](Nc1ncnc2[nH]ccc12)c1cc2ncc(Cl)n2nc1-c1ccccc1 [Compound 17] | 61.2 | 15.8 | 
CCC(Nc1ncnc2[nH]cnc12)c1cc2ncc(Cl)n2nc1-c1ccccc1 (centres unmarked) [Compound 18] |  | 42 | 
C[C@@H](c1cc2ncc(Cl)n2nc1-c1ccccc1)n1cnc2c(N)ncnc21 [Compound 20, (S)-9-(1-(3-chloro-6-phenylimidazo[1,2-b]pyridazin-7-yl)ethyl)-9H-purin-6-amine] | 43.1 | 17.4 | 
CCC(Nc1ncnc(N)c1C#N)c1cc2ncc(Cl)n2nc1-c1cccc(F)c1 (centres unmarked) [Compound 24] | 44.5 | 46.6 | 
CCC(Nc1ncnc2[nH]cnc12)c1cc2ncc(Cl)n2nc1-c1ccccc1F (centres unmarked) [Compound 25] |  | 22.8 | 
CCC(Nc1ncnc2[nH]cnc12)c1cc2ncc(Cl)n2nc1-c1ccccc1F (centres unmarked) [Compound 26] | 8 | −7.5 | 
C[C@H](Nc1ncnc(N)c1C#N)c1cc2ncc(Cl)n2nc1-c1ccccc1O [Compound 69, (S)-4-amino-6-((1-(3-chloro-6-(2-hydroxyphenyl)imidazo[1,2-b]pyridazin-7-yl)ethyl)amino)pyrimidine-5-carbonitrile] |  |  | IC50 (PI3K-β (p110β/p85α)): 133 nM

Second part, led by results:

PI3K-γ IH% (PI3K-γ (p110γ)) [%] | PI3K-β IH% (PI3K-β (p110β/p85α)) [%] | SMILES | further results
56.2 | 43.8 | C[C@H](Nc1ncnc(N)c1C#N)c1cc2ncc(Cl)n2nc1-c1cccc(C(C)(C)O)c1 (single isomer, unassigned) [Compound 79, (chiral)-4-amino-6-((1-(3-chloro-6-(3-(2-hydroxypropan-2-yl)phenyl)imidazo[1,2-b]pyridazin-7-yl)ethyl)amino)pyrimidine-5-carbonitrile] | 
24.9 | 9.5 | C[C@@H](c1cc2ncc(Cl)n2nc1-c1ccccc1)n1ccc2c(N)ncnc21 [Compound 27, (S)-7-(1-(3-chloro-6-phenylimidazo[1,2-b]pyridazin-7-yl)ethyl)-7H-pyrrolo[2,3-d]pyrimidin-4-amine] | 
35 |  | CCC(Nc1ncnc(N)c1C#N)c1cc2ncc(Cl)n2nc1-c1ccccn1 (centres unmarked) [Compound 29] | 
 | 23.8 | Cc1nc(N)c(C#N)c(N[C@@H](C)c2cc3ncc(Cl)n3nc2-c2ccccc2)n1 [Compound 32] | 
−6.9 | 2.2 | CNc1ncnc(N[C@@H](C)c2cc3ncc(Cl)n3nc2-c2ccccc2)c1C#N [Compound 33, (S)-4-((1-(3-chloro-6-phenylimidazo[1,2-b]pyridazin-7-yl)ethyl)amino)-6-(methylamino)pyrimidine-5-carbonitrile] | 
64.6 | 67.6 | C[C@H](Nc1ncnc(N)c1C#N)c1cc2ncc(Cl)n2nc1-c1cc(F)ccc1F [Compound 35] | 
27.5 | −0.4 | C[C@H](Nc1ncnc(N)c1-c1cccc(F)c1)c1cc2ncc(Cl)n2nc1-c1ccccc1 [Compound 37, (S)-N^4-(1-(3-chloro-6-phenylimidazo[1,2-b]pyridazin-7-yl)ethyl)-5-(3-fluorophenyl)pyrimidine-4,6-diamine] | 
54.3 | −2.2 | C[C@H](Nc1ncnc(N)c1-c1ccc(O)c(F)c1)c1cc2ncc(Cl)n2nc1-c1ccccc1 [Compound 38] | 
28.1 | −4.4 | COc1ccc(-c2c(N)ncnc2N[C@@H](C)c2cc3ncc(Cl)n3nc2-c2ccccc2)cn1 [Compound 39] | 
18.2 | 7.4 | C[C@@H](c1cc2ncc(Cl)n2nc1-c1ccccc1)N(C)c1ncnc(N)c1C#N [Compound 42, (S)-4-amino-6-((1-(3-chloro-6-phenylimidazo[1,2-b]pyridazin-7-yl)ethyl)(methyl)amino)pyrimidine-5-carbonitrile] | 
27.2 | 23.6 | CC[C@@H](Nc1ncnc(N)c1C#N)c1cc2ncc(Cl)n2nc1-c1cccc(F)c1 [Compound 43, (R)-4-amino-6-((1-(3-chloro-6-(3-fluorophenyl)imidazo[1,2-b]pyridazin-7-yl)propyl)amino)pyrimidine-5-carbonitrile] | 
36.0 | 18.8 | CC[C@@H](Nc1ncnc2[nH]cnc12)c1cc2ncc(Cl)n2nc1-c1cccc(F)c1 [Compound 44] | 
55.2 | 32.2 | CC[C@H](Nc1ncnc2[nH]cnc12)c1cc2ncc(Cl)n2nc1-c1cccc(F)c1 [Compound 47] | 
36.7 | −15.5 | C[C@H](Nc1nc[n+]([O-])c(N)c1C#N)c1cc2ncc(Cl)n2nc1-c1ccccc1 [Compound 51, (S)-6-amino-4-((1-(3-chloro-6-phenylimidazo[1,2-b]pyridazin-7-yl)ethyl)amino)-5-cyanopyrimidine 1-oxide] | 
−26.1 | −6.3 | C[C@H](Nc1ncnc(N)c1C(=O)O)c1cc2ncc(Cl)n2nc1-c1ccccc1 [Compound 52, (S)-4-amino-6-((1-(3-chloro-6-phenylimidazo[1,2-b]pyridazin-7-yl)ethyl)amino)pyrimidine-5-carboxylic acid] | 
34.3 | 30.5 | C[C@H](Nc1ncnc(N)c1C(N)=O)c1cc2ncc(Cl)n2nc1-c1ccccc1 [Compound 53, (S)-4-amino-6-((1-(3-chloro-6-phenylimidazo[1,2-b]pyridazin-7-yl)ethyl)amino)pyrimidine-5-carboxamide] | 
30.3 | 6.3 | C[C@H](Nc1ncnc(N)c1-c1cnn(C)c1)c1cc2ncc(Cl)n2nc1-c1ccccc1 [Compound 57] | 
20.2 | 20.5 | Cc1cn2nc(-c3ccccc3)c([C@H](C)Nc3ncnc(N)c3C#N)cc2n1 [Compound 58] | 
26.5 | 24.4 | C[C@H](Nc1ncnc(N)c1C#N)c1cc2ncc(Cl)n2nc1-c1ccc2cccnc2c1 [Compound 61] | 
 | 48.1 | C[C@H](Nc1ncnc(N)c1C#N)c1cc2ncc(Cl)n2nc1-c1ccc(F)c(F)c1 [Compound 63] | 
 | 44.1 | C[C@H](Nc1ncnc(N)c1C#N)c1cc2ncc(Cl)n2nc1-c1ccc(Cl)c(F)c1 [Compound 64] | 
32.6 | 35.2 | C[C@H](Nc1ncnc(N)c1C#N)c1cc2ncc(Cl)n2nc1-c1ccc2ccccc2c1 [Compound 71] | 
62.8 | 60.8 | C[C@H](Nc1ncnc(N)c1C#N)c1cc2ncc(Cl)n2nc1-c1ccncc1 [Compound 73] | 
40.8 | 49.4 | C[C@H](Nc1ncnc(N)c1C#N)c1cc2ncc(Cl)n2nc1-c1ccc2scnc2c1 [Compound 74] | 
 | 55.2 | Cc1noc(-c2c(N)ncnc2N[C@@H](C)c2cc3ncc(Cl)n3nc2-c2ccccc2)n1 [Compound 82, (S)-N^4-(1-(3-chloro-6-phenylimidazo[1,2-b]pyridazin-7-yl)ethyl)-5-(3-methyl-1,2,4-oxadiazol-5-yl)pyrimidine-4,6-diamine] | 
